Experimental data: PubChem BioAssay (NCI)
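Tested at 5 concentrations; 48 h exposure; 96-well plates; endpoints linearly interpolated, else capped at highest concentration. At the GI50, growth is halved. TGI: total growth inhibition.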

What was measured:
Assay in all cases: NCI tumour cell line growth inhibition, 48 h
[1] = test system: HCC-2998 colon
[2] = test system: SK-OV-3 ovarian
[3] = test system: EKVX NSCLC
[4] = test system: SW-620 colon
[5] = test system: MOLT-4 leukemia
[6] = test system: HCT-116 colon
[7] = test system: RXF 393 renal
[8] = test system: SNB-19 CNS
[9] = test system: K-562 leukemia
[10] = test system: NCI-H226 lung

| SMILES | TGI [1] [µM] | TGI [2] [µM] | TGI [3] [µM] | TGI [4] [µM] | TGI [5] [µM] | TGI [6] [µM] | TGI [7] [µM] | TGI [8] [µM] | TGI [9] [µM] | GI50 [1] [µM] | GI50 [2] [µM] | GI50 [10] [nM] | TGI [10] [µM] | GI50 [3] [µM] | GI50 [4] [µM] | GI50 [5] [µM] | GI50 [6] [nM] | GI50 [7] [nM] | GI50 [8] [µM] | GI50 [9] [nM] |
| --- | --- | --- | --- | --- | --- | --- | --- | --- | --- | --- | --- | --- | --- | --- | --- | --- | --- | --- | --- | --- |
| COc1ccc(OC)c(NC(=O)C2=C(C)NC(C)=C(C(=O)Nc3cc(OC)ccc3OC)C2c2ccccc2)c1 | > 100 | > 100 | > 100 | > 100 | > 100 | > 100 | > 100 | > 100 | > 100 |  |  |  |  |  |  |  |  |  |  |  |
| COc1ccc2c(c1)cn1c3ccc(O)cc3nc(N)c21 | 5.24 | 6.48 | 18.5 | 5.82 | 21.7 | 1.86 | 2.66 | 25 | 2.46 | 0.626 | 0.324 | 597 | 23.2 | 1.51 | 0.0388 | 1.18 | 34.1 | 85.2 | 0.357 | 73.5 |
| Cc1ccc(NC(=O)C(=O)C(C#N)c2ccccc2C)cc1C (stereo not given) | > 82 | > 100 | > 100 | > 61.3 | > 100 | > 63 | > 100 | > 100 | > 70.1 |  |  |  | > 100 |  |  |  |  |  |  |  |
| NC1C[C@H](n2cc(/C=C/Br)c(=O)[nH]c2=O)C[C@@H]1CO (stereo not given in full) | > 100 | > 100 | > 100 |  | > 100 |  | > 100 | > 100 | > 100 |  |  |  | > 100 |  |  |  |  |  |  |  |
| C=CCOc1cccc(/C=C2\SC(=Nc3ccc(O)cc3)NC2=O)c1 | 9.22 | 15.7 | > 100 | > 80.1 | > 23.8 | 5.38 | 3.77 | 36.8 | > 100 | 1.15 | 1.66 | 1210 | 22.6 | 1.47 | 0.383 | 0.523 | 408 | 302 | 0.531 | 243 |
| O=C1CC(c2ccc(O)cc2)C2(O1)C(=O)OC(C(O)CO)C2O (stereo not given) |  | > 100 | > 100 | > 100 | > 100 | > 100 | > 100 | > 100 | > 100 |  |  |  | > 100 |  |  |  |  |  |  |  |
| O=C(O)/C=C\C(=O)N1C/C(=C\c2ccccc2Cl)C(=O)/C(=C/c2ccccc2Cl)C1 | 3.87 | 15.2 | 18.3 |  | 11.2 | 3.45 | 3.36 | 5.34 | 82 | 2.06 | 4.74 | 1970 | 3.84 | 5.24 |  | 3.06 | 1600 | 1840 | 1.98 | 2440 |
| COc1ccc(-c2nc3sc4c(c3c(=O)[nH]2)CCCCCC4)cc1 | > 33.2 | > 33.2 |  | > 33.2 | > 33.2 | > 33.2 | 10.4 | > 33.2 | > 33.2 | > 33.2 | 1.6 | 8170 | > 33.2 |  | 1.81 | 31.6 | 1390 | 1620 | 4.74 | 229 |
| CC(C)[C@H]1CO[C@]2(C)[C@@H]3CN(Cc4ccccc4)C[C@@H]3C(=O)N12 |  | > 100 | > 100 | > 100 | > 100 | > 100 | > 100 | > 100 | > 100 |  |  |  | > 100 |  |  |  |  |  |  |  |
| Cc1cc(N(CCCl)CCCl)ccc1C=Nc1ccc(-c2csc(Cc3ccccc3)n2)cc1 | 33.3 | 50.1 |  | > 100 | 62 | 40.3 | 71.3 | > 100 | > 100 | 14.4 | 11.8 | 596 | 21.3 |  | 18.1 | 2.22 | 13600 | 14600 | 16.8 | 9880 |
| C1C[OH+]CC[OH+]CCNCC[OH+]CC[OH+]CCN1.N.[Cl-].[Pt+4] | 32.6 | 60.9 |  | > 100 | 36.3 | 65.8 | 12.3 | 62.6 | > 100 | 13.5 | 15.1 | 23000 | 77.4 |  | 7.62 | 3.89 | 10100 | 2490 | 7.22 | 12700 |
| CC#C[C@]1(O)CC[C@H]2[C@@H]3CCC4=CC(=O)CCC4=C3[C@@H](c3ccc4c(c3)OCO4)C[C@@]21C | 572 | 777 | 813 | > 1000 | > 1000 | 126 | 197 | > 1000 |  | 174 | 186 | 140000 | 617 | 40.4 | 62.3 | 49.5 | 31200 | 43800 | 174 |  |
